The values that follow come from ChEMBL document CHEMBL5338824 (J Med Chem, 2023).

The source made the active and inactive calls. No cut-off for these calls is given here.

The test system of series [1] is MV4-11. In words: Antiproliferative activity against human MV4-11 cells assessed as cell growth inhibition incubated for 4 days by WST-8 assay. The series is classed as functional, cell-based. The following applies: MV4-11, 96 h. (Formazan colour is commonly taken as a measure of viable cells.)
Series [2] concerns MOLM-13. In words: Antiproliferative activity against human MOLM-13 cells assessed as cell growth inhibition incubated for 4 days by WST-8 assay. The format is functional, cell-based. The following applies: MOLM-13, 96 h.
The test system of series [3] is HL-60. Kind of series: Antiproliferative activity against human HL-60 cells assessed as cell growth inhibition incubated for 4 days by WST-8 assay. The format is functional, cell-based. The following applies: HL-60, 96 h.
For series [4], the system named is RS4-11. Kind of series: Antiproliferative activity against human RS4-11 cells assessed as cell growth inhibition incubated for 4 days by WST-8 assay. The format is functional, cell-based. The following applies: RS4-11, 96 h.
Series [5] relates to MDA-MB-231. In words: Antiproliferative activity against human MDA-MB-231 cells assessed as cell growth inhibition incubated for 4 days by WST-8 assay. The format is functional, cell-based. The following applies: MDA-MB-231, 96 h.
The test system of series [6] is MDA-MB-453. In words: Antiproliferative activity against human MDA-MB-453 cells assessed as cell growth inhibition incubated for 4 days by WST-8 assay. The format is functional, cell-based. The following applies: MDA-MB-453, 96 h.
For series [7], the system named is MCF7. Kind of series: Antiproliferative activity against human MCF7 cells assessed as cell growth inhibition incubated for 4 days by WST-8 assay. The following applies: MCF7, 96 h. The format is functional, cell-based.
Series [8] concerns T47D. Kind of series: Antiproliferative activity against human T47D cells assessed as cell growth inhibition incubated for 4 days by WST-8 assay. The following applies: 96 h. The series is classed as functional, cell-based.
The target of series [9] is T1, Protein cereblon/Bromodomain-containing protein 2 (Homo sapiens, UniProt P25440+Q96SW2). The following applies: MV4-11, dose 0.1-1000 nM, time 4.0 hrs.
Target sequence in this assay (P25440 whole entry, looked up): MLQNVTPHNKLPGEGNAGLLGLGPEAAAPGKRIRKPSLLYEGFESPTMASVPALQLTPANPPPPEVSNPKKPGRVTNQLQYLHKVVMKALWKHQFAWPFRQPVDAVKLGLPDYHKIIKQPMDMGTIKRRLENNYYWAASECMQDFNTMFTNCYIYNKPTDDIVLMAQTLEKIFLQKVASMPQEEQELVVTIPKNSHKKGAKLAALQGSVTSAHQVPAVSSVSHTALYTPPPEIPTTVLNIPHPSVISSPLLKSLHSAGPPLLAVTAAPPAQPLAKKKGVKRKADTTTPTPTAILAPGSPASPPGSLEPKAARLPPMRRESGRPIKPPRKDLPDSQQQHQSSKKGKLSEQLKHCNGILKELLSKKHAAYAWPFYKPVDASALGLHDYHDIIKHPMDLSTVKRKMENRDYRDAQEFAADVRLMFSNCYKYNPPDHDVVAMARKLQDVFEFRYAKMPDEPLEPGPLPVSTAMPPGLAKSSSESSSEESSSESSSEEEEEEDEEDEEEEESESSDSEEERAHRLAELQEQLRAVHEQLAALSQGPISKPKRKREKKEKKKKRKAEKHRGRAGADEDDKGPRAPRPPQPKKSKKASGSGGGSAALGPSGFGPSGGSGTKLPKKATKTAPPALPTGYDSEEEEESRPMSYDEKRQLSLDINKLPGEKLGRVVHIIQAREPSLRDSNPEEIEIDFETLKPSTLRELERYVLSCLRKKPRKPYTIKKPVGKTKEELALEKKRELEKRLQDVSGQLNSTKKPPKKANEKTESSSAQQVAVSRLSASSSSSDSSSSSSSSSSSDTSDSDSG
Target sequence in this assay (Q96SW2 whole entry, looked up): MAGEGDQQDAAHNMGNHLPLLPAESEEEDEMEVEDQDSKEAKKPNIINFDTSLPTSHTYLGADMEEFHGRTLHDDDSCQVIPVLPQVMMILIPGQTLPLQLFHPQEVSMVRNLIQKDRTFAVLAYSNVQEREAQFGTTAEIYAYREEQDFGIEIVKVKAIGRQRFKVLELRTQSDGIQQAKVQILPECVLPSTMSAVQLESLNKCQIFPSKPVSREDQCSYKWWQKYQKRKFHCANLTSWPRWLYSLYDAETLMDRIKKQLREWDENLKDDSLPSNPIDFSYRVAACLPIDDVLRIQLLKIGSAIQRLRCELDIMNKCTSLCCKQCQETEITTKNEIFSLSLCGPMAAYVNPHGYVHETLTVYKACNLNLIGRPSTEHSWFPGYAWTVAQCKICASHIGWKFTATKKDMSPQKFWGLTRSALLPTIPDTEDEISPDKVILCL
For series [10], the target named is T2, Protein cereblon/Bromodomain-containing protein 3 (Homo sapiens, UniProt Q15059+Q96SW2). The following applies: MV4-11, dose 0.1-1000 nM, time 4.0 hrs.
Target sequence in this assay (Q15059 2-726 limits assumed): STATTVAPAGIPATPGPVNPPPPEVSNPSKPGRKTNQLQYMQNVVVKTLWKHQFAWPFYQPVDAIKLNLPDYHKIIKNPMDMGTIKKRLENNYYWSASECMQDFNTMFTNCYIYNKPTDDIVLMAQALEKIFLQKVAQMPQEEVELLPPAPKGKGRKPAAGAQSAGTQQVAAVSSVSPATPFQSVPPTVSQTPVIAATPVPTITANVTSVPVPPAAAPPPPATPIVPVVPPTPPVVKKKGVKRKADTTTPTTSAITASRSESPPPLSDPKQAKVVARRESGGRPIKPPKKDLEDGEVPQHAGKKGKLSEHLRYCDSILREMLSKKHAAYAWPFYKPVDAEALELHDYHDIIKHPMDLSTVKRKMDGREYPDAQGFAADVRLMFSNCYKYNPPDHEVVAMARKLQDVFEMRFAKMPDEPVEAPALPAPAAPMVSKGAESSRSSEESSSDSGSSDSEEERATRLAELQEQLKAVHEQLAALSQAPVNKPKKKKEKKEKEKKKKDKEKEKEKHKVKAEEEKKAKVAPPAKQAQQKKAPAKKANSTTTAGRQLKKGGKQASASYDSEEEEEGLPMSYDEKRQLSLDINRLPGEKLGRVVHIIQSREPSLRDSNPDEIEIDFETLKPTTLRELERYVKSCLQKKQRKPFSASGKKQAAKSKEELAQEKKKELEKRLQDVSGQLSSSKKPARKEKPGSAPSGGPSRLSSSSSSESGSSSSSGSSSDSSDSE
Target sequence in this assay (Q96SW2 whole entry partner): as the sequence (Q96SW2 whole entry, looked up) above
Series [11] concerns the target T1, Protein cereblon/Bromodomain-containing protein 2. The following applies: RS4-11, dose 0.1-1000 nM, time 4.0 hrs.
Target sequence in this assay (P25440 whole entry, looked up): as the sequence (P25440 whole entry, looked up) above
Target sequence in this assay (Q96SW2 whole entry, looked up): as the sequence (Q96SW2 whole entry, looked up) above
Series [12] has the same target. The following applies: HL-60, dose 0.1-1000 nM, time 4.0 hrs.
Target sequence in this assay (P25440 whole entry, looked up): as the sequence (P25440 whole entry, looked up) above
Target sequence in this assay (Q96SW2 whole entry, looked up): as the sequence (Q96SW2 whole entry, looked up) above
Series [13] shares this target. The following applies: MOLM-13, dose 0.1-1000 nM, time 4.0 hrs.
Target sequence in this assay (P25440 whole entry, looked up): as the sequence (P25440 whole entry, looked up) above
Target sequence in this assay (Q96SW2 whole entry, looked up): as the sequence (Q96SW2 whole entry, looked up) above
For series [14] the target is unchanged. The following applies: MDA-MB-231, dose 0.1-1000 nM, time 4.0 hrs.
Target sequence in this assay (P25440 whole entry, looked up): as the sequence (P25440 whole entry, looked up) above
Target sequence in this assay (Q96SW2 whole entry, looked up): as the sequence (Q96SW2 whole entry, looked up) above
For series [15] the target is unchanged. The following applies: MDA-MB-453, dose 0.1-1000 nM, time 4.0 hrs.
Target sequence in this assay (P25440 whole entry, looked up): as the sequence (P25440 whole entry, looked up) above
Target sequence in this assay (Q96SW2 whole entry, looked up): as the sequence (Q96SW2 whole entry, looked up) above
Series [16] shares this target. The following applies: MCF7, dose 0.1-1000 nM, time 4.0 hrs.
Series [17] has the same target. The following applies: T47D, dose 0.1-1000 nM, time 4.0 hrs.
The target in series [18] is T2, Protein cereblon/Bromodomain-containing protein 3. The following applies: RS4-11, dose 0.1-1000 nM, time 4.0 hrs.
Target sequence in this assay (Q15059 2-726 limits assumed): as the sequence (Q15059 2-726 limits assumed) above
Target sequence in this assay (Q96SW2 whole entry partner): as the sequence (Q96SW2 whole entry, looked up) above
Series [19] has the same target. The following applies: HL-60, dose 0.1-1000 nM, time 4.0 hrs.
Target sequence in this assay (Q15059 2-726 limits assumed): as the sequence (Q15059 2-726 limits assumed) above
Target sequence in this assay (Q96SW2 whole entry partner): as the sequence (Q96SW2 whole entry, looked up) above
For series [20] the target is unchanged. The following applies: MOLM-13, dose 0.1-1000 nM, time 4.0 hrs.
Target sequence in this assay (Q15059 2-726 limits assumed): as the sequence (Q15059 2-726 limits assumed) above
Target sequence in this assay (Q96SW2 whole entry partner): as the sequence (Q96SW2 whole entry, looked up) above
For series [21] the target is unchanged. The following applies: MDA-MB-231, dose 0.1-1000 nM, time 4.0 hrs.
Target sequence in this assay (Q15059 2-726 limits assumed): as the sequence (Q15059 2-726 limits assumed) above
Target sequence in this assay (Q96SW2 whole entry partner): as the sequence (Q96SW2 whole entry, looked up) above
The target is the same in series [22]. The following applies: MDA-MB-453, dose 0.1-1000 nM, time 4.0 hrs.
Target sequence in this assay (Q15059 2-726 limits assumed): as the sequence (Q15059 2-726 limits assumed) above
Target sequence in this assay (Q96SW2 whole entry partner): as the sequence (Q96SW2 whole entry, looked up) above
For series [23] the target is unchanged. The following applies: MCF7, dose 0.1-1000 nM, time 4.0 hrs.
For series [24] the target is unchanged. The following applies: T47D, dose 0.1-1000 nM, time 4.0 hrs.
The subject of series [25] is MV4-11. Kind of series: Antitumor activity against human MV4-11 cells xenografted in SCID mouse assessed as decrease in tumor growth at 20 mg/kg,ip qd administrated and measured after 48 hrs. The format is functional, organism-based.
In series [26] the test system is MV4-11. In words: Antitumor activity against human MV4-11 cells xenografted in SCID mouse assessed as inhibition of tumor growth at 20 mg/kg,ip qd administrated and measured after 1 week. The format is functional. The following applies: MV4-11, 168 h, time 1 weeks. For orientation: Xenograft models place foreign cells or tissue in a host animal.
The nature of series [27]: Toxicity in SCID mouse xenografted with human MV4-11 cells assessed as body weight loss at 20 mg/kg,ip qd administrated 5 days per week for 4 weeks. The format is organism-based. The following applies: in vivo, 672 h, time 28 day.
Series [28] is described as follows: Toxicity in SCID mouse xenografted with human MDA-MB-231 cells assessed as body weight loss at 20 mg/kg,ip qd administrated 5 days per week for 4 weeks. The following applies: in vivo, 672 h, time 28 day. The format is organism-based.
The nature of series [29]: Toxicity in SCID mouse xenografted with human MV4-11 cells assessed as toxic signs at 20 mg/kg,ip qd administrated 5 days per week for 4 weeks. The series is classed as organism-based. The following applies: in vivo, 672 h, time 28 day.
A short description of series [30]: Toxicity in SCID mouse xenografted with human MDA-MB-231 cells assessed as toxic signs at 20 mg/kg,ip qd administrated 5 days per week for 4 weeks. The series is classed as organism-based. The following applies: in vivo, 672 h, time 28 day.
Series [31] addresses T1, Protein cereblon/Bromodomain-containing protein 2. Kind of series: PROTAC activity at CRBN/BRD2 in human MV4-11 cells assessed as degradation of BRD2 protein level incubated for 4 hrs by Western blotting assay. The format is cell-based. For orientation: Immunoblotting shows a protein as a band on a membrane.
Target sequence in this assay (P25440 whole entry): as the sequence (P25440 whole entry, looked up) above
Target sequence in this assay (Q96SW2 whole entry): as the sequence (Q96SW2 whole entry, looked up) above
Series [32] addresses T2, Protein cereblon/Bromodomain-containing protein 3. In words: PROTAC activity at CRBN/BRD3 in human MV4-11 cells assessed as degradation of BRD3 protein level incubated for 4 hrs by Western blotting assay. The series is classed as cell-based.
Target sequence in this assay (Q15059 whole entry): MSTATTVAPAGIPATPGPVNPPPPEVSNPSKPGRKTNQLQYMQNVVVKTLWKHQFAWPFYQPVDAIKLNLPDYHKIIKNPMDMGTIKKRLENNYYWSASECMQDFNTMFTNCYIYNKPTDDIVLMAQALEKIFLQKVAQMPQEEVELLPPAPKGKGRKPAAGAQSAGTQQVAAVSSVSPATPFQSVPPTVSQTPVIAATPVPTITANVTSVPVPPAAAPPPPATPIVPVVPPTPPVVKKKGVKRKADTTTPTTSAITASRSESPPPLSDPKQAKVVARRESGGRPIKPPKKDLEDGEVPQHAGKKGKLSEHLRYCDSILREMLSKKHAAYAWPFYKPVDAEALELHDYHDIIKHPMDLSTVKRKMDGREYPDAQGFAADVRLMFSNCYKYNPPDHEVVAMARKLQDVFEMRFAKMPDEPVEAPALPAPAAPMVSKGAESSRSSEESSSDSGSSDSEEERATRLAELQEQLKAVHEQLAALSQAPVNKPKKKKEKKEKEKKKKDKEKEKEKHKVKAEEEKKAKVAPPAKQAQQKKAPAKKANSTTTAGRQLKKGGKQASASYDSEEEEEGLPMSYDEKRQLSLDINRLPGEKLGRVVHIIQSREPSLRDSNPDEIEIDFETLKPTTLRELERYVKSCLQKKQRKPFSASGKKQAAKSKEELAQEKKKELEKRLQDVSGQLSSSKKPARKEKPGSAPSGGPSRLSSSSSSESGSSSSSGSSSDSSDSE
Target sequence in this assay (Q96SW2 whole entry): as the sequence (Q96SW2 whole entry, looked up) above
Series [33] deals with T3, Protein cereblon/Bromodomain-containing protein 4 (Homo sapiens, UniProt O60885+Q96SW2). Kind of series: PROTAC activity at CRBN/BRD4 in human MV4-11 cells assessed as degradation of BRD4 protein level incubated for 4 hrs by Western blotting assay. The series is classed as cell-based.
T3 sequence (Q96SW2 whole entry, looked up, other chains not shown): as the sequence (Q96SW2 whole entry, looked up) above
For series [34], the target named is T3, Protein cereblon/Bromodomain-containing protein 4. The following applies: MV4-11, dose 0.1-1000 nM, time 4.0 hrs.
In series [35] the target is T2, Protein cereblon/Bromodomain-containing protein 3. Kind of series: In vivo protac activity at CRBN/BRD3 in human MV4-11 cells xenografted in SCID mouse assessed as degradation of BRD3 protein at 20 mg/kg,ip administrated and measured at 3 to 48 hrs by Western blotting analysis. The format is functional, organism-based. The following applies: time lower 3.0 hrs, time upper […].

For series [36], the target named is T1, Protein cereblon/Bromodomain-containing protein 2. In words: In vivo protac activity at CRBN/BRD2 in human MV4-11 cells xenografted in SCID mouse assessed as degradation of BRD2 protein at 20 mg/kg,ip administrated and measured at 3 to 48 hrs by Western blotting analysis. The series is classed as functional, organism-based. The following applies: time lower 3.0 hrs, time upper […].

The test system of series [37] is MV4-11. In words: Antitumor activity against human MV4-11 cells xenografted in SCID mouse assessed as inhibition of tumor growth at 20 mg/kg,ip qd administrated 5 days per week for 4 weeks. The series is classed as functional. The following applies: MV4-11, 672 h, time 28 day.
Series [38] deals with MDA-MB-231. Kind of series: Antitumor activity against human MDA-MB-231 cells xenografted in SCID mouse assessed as inhibition of tumor growth at 20 mg/kg,ip qd administrated 5 days per week for 4 weeks. The series is classed as functional. The following applies: MDA-MB-231, 672 h, time 28 day.

As for `Cc1nnc2n1-c1sc(C#Cc3cnn(C4CN(c5cccc6c5C(=O)N(C5CCC(=O)NC5=O)C6=O)C4)c3)c(Cc3ccccc3)c1COC2` (stereo unspecified), the IC50 (as a rule, the concentration that inhibits the measured activity by half) in series [1] came to 17 nM; in series [2] it was 25 nM; in [3], 4.9 nM; in series [4], 6.4 nM; in series [5], 15.9 nM; in series [6] it was 59.9 nM. Besides, the results for the IC50 in [7] and in series [8] were 37.8 nM and 3.3 nM, respectively. Also, the Emax (usually the greatest response seen or fitted, relative to the assay's reference) was 0% in series [9]; 0% in [10]; less than 10% in [11]; 10% in [12]; 27% in series [13]; 0% in series [14]. Moreover, the Emax in series [15] was 18%; in [16], 0%; in [17], 0%; in [18], 6%; in [19], 18%; in [20] it was 13%. For the same compound, the Emax in series [21] was 19%; in series [22], 5%; in [23] it was 34%; in series [24], 22%.

Consider `Cc1nnc2n1-c1sc(C#Cc3cnn(C4(CCN5CCN(C)CC5)CN(c5cccc6c5C(=O)N(C5CCC(=O)NC5=O)C6=O)C4)c3)c(Cc3ccccc3)c1COC2` (stereo unspecified), for which the IC50 in series [1] was determined as 11 nM; in [2] it was 69 nM; in series [3], 5.1 nM; in series [4], 4.6 nM; in series [5], 17.6 nM; in series [6] it was 80.9 nM. Further, the IC50 in [7] amounted to 38.4 nM; in series [8] it was 3.8 nM. Moreover, the result in series [25] was Active. Further, the inhibition in vivo (usually the change of the read-out against control, counted positive when it falls) at 20 mg/kg in [26] amounted to 56%. Further, the Activity result in series [27], in series [28], in series [29] and in series [30] was “Non-Toxic” each time. For the same compound, the Emax in series [9] was determined as 0%; in [10] it was 0%; in [11], 15%; in series [12], 18%; in [13], 0%; in series [14], 0%. Besides, the Emax in series [15] was found to be 0%; in series [16] it was 11%; in series [17] it was 6%; in series [18] it was 15%; in [19] it was 10%; in [20], 9%. For the same compound, the Emax came out at 0% in [21], 14% in series [22], 0% in series [23] and 25% in series [24].

On to `Cc1nnc2n1-c1sc(C#Cc3cnn(C4CN(c5cccc6c5C(=O)N(C5CCC(=O)N(C)C5=O)C6=O)C4)c3)c(Cc3ccccc3)c1COC2` (stereo unspecified), for which the DC50 in series [31], in series [32] and in [33] was greater than 1000 nM in each case. Further, the Emax in series [9] stood at 5%; in series [10], 12%; in series [34], 2%.

As for `Cc1nnc2n1-c1sc(C#Cc3cnn(C4CCN(c5cccc6c5C(=O)N(C5CCC(=O)NC5=O)C6=O)CC4)c3)c(Cc3ccccc3)c1COC2` (stereo unspecified), the Emax in [9] was determined as 68%; in [10] it was 56%.

Turning to `Cc1nnc2n1-c1sc(C#Cc3cnn(C)c3)c(Cc3ccccc3)c1COC2`, the IC50 was determined as 149 nM in [1]; 212 nM in series [2]; 113 nM in [3]; 186 nM in [4]; 151 nM in series [5]; 689 nM in series [6]. For the same compound, the IC50 in [7] came out at 804 nM; in series [8], 623 nM. The result in series [35] and in [36] was inactive. The inhibition in vivo at 20 mg/kg in series [37] was found to be 63%; in series [38], 49%. Further, the Emax in series [9] and in series [10] was 0% throughout.
